Reference: patent US8003659B2, “Macrocyclic serine protease inhibitors” (Indenix Pharmaceuticals, Inc., priority 2008, dated 2011)
Like-named read-outs stand apart in the source and are kept apart here.

Assays:
[1] = rcm bond, 14-membered ring, DCE
[2] = biological target: T1, HCV NS3-NS4A protease (Hepatitis C virus genotype 1b, UniProt P26663); assay: HCV Protease Assay (SensoLyte 620 HCV Protease Assay kit); assay type: biochemical; conditions: 1.2 nM HCV NS3-NS4A protease, 60 min at room temperature, 5% DMSO
T1 construct: made in house
T1 sequence (P26663 1027-1208): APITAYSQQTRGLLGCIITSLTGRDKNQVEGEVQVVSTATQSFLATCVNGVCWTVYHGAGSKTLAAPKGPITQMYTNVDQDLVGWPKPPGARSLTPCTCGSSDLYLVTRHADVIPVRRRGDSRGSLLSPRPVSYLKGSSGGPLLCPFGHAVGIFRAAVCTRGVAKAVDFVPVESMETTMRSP
Outline: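 Protease at 1.2 nM, run with the SensoLyte 620 fluorogenic kit under supplier conditions, with compounds at several concentrations in buffer with 5% final DMSO. Reactions ran 60 min at room temperature before fluorescence reading; IC50 from four-parameter sigmoidal fit of percent inhibition.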

[3] = tested on: Huh-7 cells containing HCV Con1 subgenomic replicon (GS4.1 cells); assay: HCV Replicon Assay (NS4A ELISA); assay type: cell-based; conditions: NS4A protein by ELISA
Outline: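 GS4.1 cells (Huh-7 with HCV Con1 subgenomic replicon) given ten 2-fold compound dilutions (top 75 μM) or a single 15 μM dose in 0.5% DMSO for 72 h at 37 °C. NS4A measured by cell ELISA (A492); EC50 from four-parameter sigmoidal fit, single-dose results as % inhibition at 15 μM.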

[4] = tested on: GS4.1 cells; assay: Cytotoxicity evaluation (Cell Titer 96 AQueous One Solution Cell Proliferation Assay); assay type: cell-based; conditions: cellular viability
Description: (§1) For cytotoxicity evaluation, GS4.1 cells were treated with compounds as described above and cellular viability was monitored using the Cell Titer 96 AQueous One Solution Cell Proliferation Assay (Promega). CC50 values were determined from the % cytotoxicity versus concentration data with Tecan Magellan software as described above.

[5] = as above; assay type: cell-based; conditions: human; GS4.1 cells, cellular viability
Description: as §1

[6] = tested on: genotype 1b replicon; assay: Antiviral activity in a genotype 1b replicon assay; assay type: cell-based, HCV; conditions: Hepatitis C virus; genotype 1b replicon assay as described in Example 32; read-out: EC50
Description: General procedure: Huh-7 cells containing HCV Con1 subgenomic replicon (GS4.1 cells) were grown in Dulbecco's Modified Eagle Medium (DMEM) supplemented with 10% fetal bovine serum (FBS), 2 mM L-glutamine, 110 mg/L sodium pyruvate, 1× non-essential amino acids, 100 U/mL penicillin-streptomycin, and 0.5 mg/mL G418 (Invitrogen). For dose-response testing, the cells were seeded in 96-well plates at 7.5×10^3 cells/well in a volume of 50 μL, and incubated at 37° C./5% CO2. Three hours after plating, 50 μL of ten 2-fold serial dilutions of compounds (highest concentration, 75 μM) were added, and cell cultures were incubated at 37° C./5% CO2 in the presence of 0.5% DMSO. Alternatively, compounds were tested at a single concentration of 15 μM. In all cases, Huh-7 cells lacking the HCV replicon served as negative control. The cells were incubated in the presence of compounds for 72 hr after which they were monitored for expression of the NS4A protein by enzyme-linked immunosorbent assay (ELISA). For this, the plates were then fixed for 1 min with acetone/methanol (1:1, v/v), washed twice with phosphate-buffered saline (PBS), 0.1% Tween 20, blocked for 1 hr at room temperature with TNE buffer containing 10% FBS and then incubated for 2 hr at 37° C. with the anti-NS4A mouse monoclonal antibody A-236 (ViroGen) diluted in the same buffer. After washing three times with PBS, 0.1% Tween 20, the cells were incubated 1 hr at 37° C. with anti-mouse immunoglobulin G-peroxidase conjugate in TNE, 10% FBS. After washing as described above, the reaction was developed with O-phenylenediamine (Zymed). The reaction was stopped after 30 min with 2 NH2SO4, and absorbance was read at 492 nm using Sunrise Tecan spectrophotometer. EC50 values were determined from the % inhibition versus concentration data using a sigmoidal non-linear regression analysis based on four parameters with Tecan Magellan software. When screening at a single concentration, the results were expressed as % inhibition at 15 μM.
(§2) Compounds were tested in a genotype 1b replicon assay as described in Example 32 and the results are summarized in Table 6, wherein A represents a value smaller than 1 μM, and B represents a value between 1 μM to 10 μM, C represents a value between 10 μM to 75 μM and D represents a value greater than 75 μM.

[7] = Cytotoxicity (CC50) in the genotype 1b replicon assay; assay type: cell-based; conditions: human, GS4.1 cells; genotype 1b replicon assay as described in Example 32
Description: as §1, §2

[8] = tested on: HCV genotype 2a infectious virus; assay: HCV genotype 2a infectious virus assay; assay type: cell-based, HCV (strain JFH-1; genotype 2a); conditions: Hepatitis C virus
Description: Compounds were tested in a HCV genotype 2a infectious virus assay and the results are summarized in Table 7, wherein A represents a value smaller than 1 μM, and B represents a value between 1 μM to 10 μM, C represents a value between 10 μM to 75 μM and D represents a value greater than 75 μM.
The HCV in vitro infection core ELISA assay measures the ability of a test compound to inhibit replication of an infectious HCV (strain JFH-1; genotype 2a) in cell culture. […] We have developed this model for determining the efficacy of antiviral compounds against an infectious virus in vitro using HCV producing cells (HPC), a proprietary Huh-7-derived cell sublineage capable of propagating the JFH-1 HCV virus. The readout of the assay is quantification of HCV core protein by ELISA 5 days post infection with JFH-1 virus and treatment with a test compound.
Ninety-six-well Corning Costar plates were seeded with HPC cells at a density of 3.0×10^3 cells per well in 50 μL of Huh-7 media. Compound stock solutions were made up freshly in Huh-7 media (DMEM (containing glucose, L-glutamine and sodium pyruvate), 10% FBS, 100 IU/mL penicillin, 100 μg/mL streptomycin, 2 mM GlutaMAX, 1% MEM non-essential amino acids) as 2× stock. Seven additional 3-fold drug dilutions were prepared from the 2× stocks in Huh-7 media. At least 4 hours after HPC cells were seeded, the media in the 96-well culture plates was aspirated and 50 μL of each drug dilution and 50 μL of JFH-1 HCV was added to each well.
At 16 hrs post treatment and infection, the virus inoculum was removed by aspiration. The cultures were treated at the same final concentrations of drug diluted to 1× in Huh-7 media to a final volume of 200 μL. Cells were incubated in the presence of drug for 4 additional days at 37° C./5% CO2.
Media was removed from the plates by aspiration. Cells were fixed with 250 μL 1:1 acetone:methanol for 90 seconds, washed once in PBS and then three times with 1×KPL wash solution. The assay plates were then blocked with 150 μL/well 10% FBS-TNE (50 mM Tris-HCl (pH 7.5; Sigma), 100 mM NaCl, 1 mM EDTA with 10% FBS) for 1 hr at room temperature. Cells were washed three times with 1×KPL wash solution and incubated with 100 μL/well anti-hepatitis C core mAb (1 mg/mL stock diluted 1:500 in 10% FBS-TNE) for 2 hours at 37° C. Cells were washed three times with 1×KPL wash solution and incubated with 100 μL/well HRP-goat anti-mouse antibody (diluted 1:2,500 in 10% FBS-TNE) for 1 hr at 37° C.
OPD solution was prepared using 1 OPD tablet+12 mL citrate/phosphate buffer (16 mM citric acid, 27 mM Na2HPO4) plus 5 μL 30% H2O2 per plate. Cells were washed three times with 1×KPL wash solution and developed with 100 μL/well OPD solution for 30 minutes in the dark at room temperature. The reaction was stopped with 100 μL/well of 2NH2SO4, and absorbance measured at A490 nm in a Victor^3 V 1420 multilabel counter (Perkin Elmer). The EC50 values for each compound were calculated from dose response curves from the resulting best-fit equations determined by Microsoft Excel and XLfit 4.1 software. The negative control for inhibition of virus replication was untreated HPC cells infected with the JFH-1 HCV virus strain. The negative ELISA control was untreated, uninfected HPC cells. The positive ELISA control was untreated HPC cells infected the JFH-1 HCV virus strain.

[9] = Hepatitis C virus, Huh-7, 72 hr

**Q.** For `COc1ccc2c(O[C@H]3C[C@H]4C(=O)N(C)CCCCC=C[C@@H]5C[C@@]5(C(=O)NS(=O)(=O)C5CC5)NC(=O)N4C3)cc(-n3ccc(C(F)(F)F)n3)nc2c1Cl`, which ring closure, isolated yield ([1]; from C=CCCCCN(C)C(=O)[C@@H]1C[C@H](Oc2cc(-n3ccc(C(F)(F)F)n3)nc3c(Cl)c(OC)ccc23)CN1C(=O)N[C@]1(C(=O)NS(=O)(=O)C2CC2)C[C@H]1C=C, Zhan 1B, 1.0 mM, 60.0 °C, 18.0 h) is on record?
**A.** 40%

**Q.** For `COc1ccc2c(O[C@@H]3C[C@H]4C(=O)N(C)CCCCCC/C=C\[C@@H]5C[C@@]5(C(=O)NS(=O)(=O)C5(C)CC5)NC(=O)N4C3)cc(-c3nc(C(C)C)cs3)nc2c1C` [Compound 76b], which IC50 [2] is on record?
**A.** < 1000 nM

**Q.** And the EC50 ([3]; 72 hr)?
**A.** 1000 to 10000 nM

**Q.** And the CC50 [4]?
**A.** > 75000 nM

**Q.** For `CCOC(=O)[C@@]12C[C@@H]1C=CCCCCN(C)C(=O)[C@@H]1C[C@@H](O[Si](C)(C)C(C)(C)C)CN1C(=O)N2`, which ring closure, isolated yield ([1]; from C=CCCCCN(C)C(=O)[C@@H]1C[C@@H](O[Si](C)(C)C(C)(C)C)CN1C(=O)N[C@]1(C(=O)OCC)C[C@@H]1C=C, Hoveyda-Grubbs II (6%), 1.9 mM, 3.0 h) is on record?
**A.** 51%

**Q.** Which IC50 [2] does the source give for `COc1ccc2c(O[C@H]3C[C@H]4C(=O)N(C)CCCC/C=C\[C@@H]5C[C@@]5(C(=O)NS(=O)(=O)C5(C)CC5)NC(=O)N4C3)cc(-c3csc(C#N)n3)nc2c1Cl` [Compound T2, (Z)-(4R,6S,15S,17S)-[17-[8-chloro-7-methoxy-2-(2-cyanothiazol-4-yl)quinolin-4-yloxy]-13-N-methyl-2,14-dioxo-1,3,13-triazatricyclo-[13.3.0.0]octadec-7-en-4-yl]carbonyl-(1-methylcyclopropyl)sulfonamide] here?
**A.** < 1000 nM

**Q.** What about the EC50 ([3]; 72 hr) of the same compound?
**A.** < 1000 nM

**Q.** What about the CC50 [4] of the same compound?
**A.** > 75000 nM

**Q.** What does the source list for `COc1ccc2c(O[C@H]3C[C@H]4C(=O)N(C)CCCC/C=C\[C@@H]5C[C@@]5(C(=O)NS(=O)(=O)C5CC5)NC(=O)N4C3)cc(-c3csc(C#N)n3)nc2c1Cl` [Compound T1, (Z)-(4R,6S,15S,17S)-[17-[8-chloro-7-methoxy-2-(2-cyanothiazol-4-yl)quinolin-4-yloxy]-13-N-methyl-2,14-dioxo-1,3,13-triazatricyclo-[13.3.0.0]octadec-7-en-4-yl]carbonyl-(cyclopropyl)sulfonamide]?
**A.** IC50 [2]: < 1000 nM; EC50 ([3]; 72 hr): < 1000 nM; CC50 [4]: 10000 to 75000 nM

**Q.** Which results are given for `COc1ccc2c(O[C@H]3C[C@H]4C(=O)N(C)CCCC/C=C\[C@@H]5C[C@@]5(C(=O)NS(=O)(=O)C5(C)CC5)NC(=O)N4C3)cc(-c3nc(C(F)(F)F)cs3)nc2c1C` [Compound 68b, (Z)-(4R,6S,15S,17S)-[17-[7-methoxy-8-methyl-2-(4-trifluoromethythiazol-2-yl)quinolin-4-yloxy]-13-N-methyl-2,14-dioxo-1,3,13-triazatricyclo[13.3.0.0]octadec-7-en-4-yl]carbonyl(1-methylcyclopropyl)sulfonamide]?
**A.** ring closure, isolated yield ([1]; from C=CCCCCN(C)C(=O)[C@@H]1C[C@H](Oc2cc(-c3nc(C(F)(F)F)cs3)nc3c(C)c(OC)ccc23)CN1C(=O)N[C@]1(C(=O)NS(=O)(=O)C2(C)CC2)C[C@H]1C=C, Zhan 1B (8%), 4.9 mM, 75.0 °C, 4.33 h): 30%; IC50 [2]: < 1000 nM; EC50 [3, 9]: < 1000 nM; CC50 [5]: > 75000 nM; EC50 [6]: < 1000 nM; CC50 [7]: 10000 to 75000 nM; EC50 [8]: < 1000 nM

**Q.** With `COc1ccc2c(O[C@H]3C[C@H]4C(=O)N(C)CCCC/C=C\[C@@H]5C[C@@]5(C(=O)NS(=O)(=O)C5CC5)NC(=O)N4C3)cc(-c3nc(C(F)(F)F)cs3)nc2c1C` [Compound 69b, (Z)-(4R,6S,15S,17S)-[17-[7-methoxy-8-methyl-2-(4-trifluoromethythiazol-2-yl)quinolin-4-yloxy]-13-N-methyl-2,14-dioxo-1,3,13-triazatricyclo[13.3.0.0]octadec-7-en-4-yl]carbonyl(cyclopropyl)sulfonamide] as the compound, how does the IC50 [2] read?
**A.** < 1000 nM

**Q.** What about the EC50 [3, 9] of the same compound?
**A.** < 1000 nM

**Q.** What about the CC50 [5] of the same compound?
**A.** > 75000 nM

**Q.** What about the EC50 [6] of the same compound?
**A.** < 1000 nM

**Q.** What about the CC50 [7] of the same compound?
**A.** > 75000 nM

**Q.** What about the EC50 [8] of the same compound?
**A.** < 1000 nM

**Q.** Which IC50 [2] does the source give for `COc1ccc2c(O[C@@H]3C[C@H]4C(=O)N(C)CCCCC/C=C\[C@@H]5C[C@@]5(C(=O)NS(=O)(=O)C5(C)CC5)NC(=O)N4C3)cc(-c3nc(C(C)C)cs3)nc2c1C` [Compound 76a, (Z)-(4R,6S,16S,18R)-[2,15-dioxo-18-[7-methoxy-8-methyl-2-(4-isopropylthiazol-2-yl)quinolin-4-yloxy]-14-N-methyl-1,3,14-triazatricyclo[14.3.0.0]nonadec-7-en-4-yl]carbonyl(1-methyl-cyclopropyl)sulfonamide] here?
**A.** 1000 to 10000 nM

**Q.** And the EC50 ([3]; 72 hr)?
**A.** 1000 to 10000 nM

**Q.** What about the CC50 [4] of the same compound?
**A.** > 75000 nM
